Molecules are shown by their SMILES. Counter-ions that a name gives are not always drawn.

HSET full length protein, sequence (Q9BW19 whole entry): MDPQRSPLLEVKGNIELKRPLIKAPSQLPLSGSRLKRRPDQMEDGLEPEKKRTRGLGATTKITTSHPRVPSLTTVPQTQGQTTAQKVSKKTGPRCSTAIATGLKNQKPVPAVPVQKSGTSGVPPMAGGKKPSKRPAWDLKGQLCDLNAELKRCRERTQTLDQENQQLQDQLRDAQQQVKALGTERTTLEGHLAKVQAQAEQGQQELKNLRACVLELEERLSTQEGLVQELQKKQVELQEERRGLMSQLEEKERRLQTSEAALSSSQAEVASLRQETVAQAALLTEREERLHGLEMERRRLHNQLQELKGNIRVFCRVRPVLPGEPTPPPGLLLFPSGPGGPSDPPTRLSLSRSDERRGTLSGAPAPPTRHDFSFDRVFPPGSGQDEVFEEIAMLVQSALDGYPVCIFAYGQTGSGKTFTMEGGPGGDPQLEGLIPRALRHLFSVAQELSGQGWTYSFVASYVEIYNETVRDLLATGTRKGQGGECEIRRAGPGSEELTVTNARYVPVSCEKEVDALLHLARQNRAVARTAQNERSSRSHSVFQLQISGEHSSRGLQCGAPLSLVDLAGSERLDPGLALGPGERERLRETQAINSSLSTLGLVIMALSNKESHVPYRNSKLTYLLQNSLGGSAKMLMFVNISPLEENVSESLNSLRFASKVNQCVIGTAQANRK

This assay concerns the target HSET full length protein (Homo sapiens (Human), UniProt Q9BW19). As to the kind of experiment: HSET ADP-Glo Assay S - 3 μM ATP. The assay is classed as biochemical. The conditions noted are these: 5 nM HSET, 70 μg/mL microtubule, 80 min at rt, read-out: COMBINED HSET ADP GLO IC50. In short, it runs like this:
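Full-length human HSET (5 nM) with paclitaxel-stabilised bovine brain microtubules (70 μg/mL) in HEPES pH 6.8 buffer was preincubated 10 min with compound. ATP at 3 μM started the reaction, which ran 80 min at rt. ADP formed was measured by ADP-Glo luminescence.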
For orientation: ADP-Glo first removes unused ATP, then detects ADP through luciferase.
`CCCOC(=O)c1sc(NC(=O)[C@H](CNC(=O)c2cccc(-c3noc(C)n3)c2)N(C)C)nc1C` [Example 175, Propyl (S)-2-(2-(dimethylamino)-3-(3-(5-methyl-1,2,4-oxadiazol-3-yl)benzamido)propanamido)-4-methylthiazole-5-carboxylate formate]: the IC50 was 335 nM. As for `CCCOC(=O)c1sc(NC(=O)[C@H](O)CNc2nccc3ccc(-c4noc(C)n4)cc23)nc1C` [Example 176, Propyl (R)-2-(2-hydroxy-3-((7-(5-methyl-1,2,4-oxadiazol-3-yl)isoquinolin-1-yl)amino)propanamido)-4-methylthiazole-5-carboxylate], the figure is 1 nM; as for `Cc1nc(-c2ccc3ccnc(NC[C@@H](O)C(=O)Nc4nc(C)c(C(=O)OC(C)(C)C)s4)c3c2)no1` [Example 177, tert-Butyl (R)-2-(2-hydroxy-3-((7-(5-methyl-1,2,4-oxadiazol-3-yl)isoquinolin-1-yl)amino)propanamido)-4-methylthiazole-5-carboxylate], 2 nM. With `CCCOC(=O)c1sc(NC(=O)[C@@H](O)CNc2nccc3ccc(-c4noc(C)n4)cc23)nc1C` [Example 178, Propyl (S)-2-(2-hydroxy-3-((7-(5-methyl-1,2,4-oxadiazol-3-yl)isoquinolin-1-yl)amino)propanamido)-4-methylthiazole-5-carboxylate], the IC50 worked out at 2 nM. As for `Cc1nc(-c2ccc3ccnc(NC[C@H](O)C(=O)Nc4nc(C)c(CC(C)C)s4)c3c2)no1` [Example 179, (S)-2-hydroxy-N-(5-isobutyl-4-methylthiazol-2-yl)-3-((7-(5-methyl-1,2,4-oxadiazol-3-yl)isoquinolin-1-yl)amino)propenamide], the figure is 43 nM; as for `Cc1nc(-c2ccc3ccnc(NC[C@H](O)C(=O)Nc4nc(C)c(C(=O)OC(C)(C)C)s4)c3c2)no1` [Example 180, tert-Butyl (S)-2-(2-hydroxy-3-((7-(5-methyl-1,2,4-oxadiazol-3-yl)isoquinolin-1-yl)amino)propanamido)-4-methylthiazole-5-carboxylate], 2 nM.

For `Cc1nc(NC(=O)[C@@H](O)CNc2nccc3ccc(-c4cnn(C)c4)cc23)sc1C(=O)OC(C)(C)C` [Example 181, tert-Butyl (S)-2-(2-hydroxy-3-((7-(1-methyl-1 H-pyrazol-4-yl)isoquinolin-1-yl)amino)propanamido)-4-methylthiazole-5-carboxylate], the IC50 was 14 nM. The figure for `CCCc1nc(-c2cc(NC(=O)[C@@H](O)CNc3nccc4ccc(-c5noc(C)n5)cc34)nn2C)no1` [Example 182, (S)-2-hydroxy-3-((7-(5-methyl-1,2,4-oxadiazol-3-yl)isoquinolin-1-yl)amino)-N-(1-methyl-5-(5-propyl-1,2,4-oxadiazol-3-yl)-1 H-pyrazol-3-yl)propenamide] is 57 nM.

In the case of `CCCc1nc(-c2cc(NC(=O)[C@@H](O)CNc3nccc4ccc(C)cc34)nn2C)no1` [Example 183, (S)-2-hydroxy-N-(1-methyl-5-(5-propyl-1,2,4-oxadiazol-3-yl)-1 H-pyrazol-3-yl)-3-((7-methylisoquinolin-1-yl)amino)propanamide], the IC50 came to 17300 nM. As for `Cc1ccc2ccnc(NC[C@@H](O)C(=O)Nc3nc(C)c(C(=O)OC(C)(C)C)s3)c2c1` [Example 184, tert-Butyl (R)-2-(2-hydroxy-3-((7-methylisoquinolin-1-yl)amino)propanamido)-4-methylthiazole-5-carboxylate], the IC50 came out at 34 nM. As for `Cc1ccc2ccnc(NC[C@H](O)C(=O)Nc3nc(C)c(C(=O)OC(C)(C)C)s3)c2c1` [Example 185, tert-Butyl (S)-2-(2-hydroxy-3-((7-methylisoquinolin-1-yl)amino)propanamido)-4-methylthiazole-5-carboxylate], the figure is 20 nM; as for `CCCOC(=O)c1sc(NC(=O)[C@H](CNc2nccc3ccc(-c4noc(C)n4)cc23)OC)nc1C` [Example 186, Propyl (S)-2-(2-methoxy-3-((7-(5-methyl-1,2,4-oxadiazol-3-yl)isoquinolin-1-yl)amino)propanamido)-4-methylthiazole-5-carboxylate], 30 nM. Regarding `Cc1nc(-c2ccc3ccnc(NC[C@H](O)C(=O)Nc4nc(C)c(C(C)(C)C)s4)c3c2)no1` [Example 187, (S)-N-(5-(tert-butyl)-4-methylthiazol-2-yl)-2-hydroxy-3-((7-(5-methyl-1,2,4-oxadiazol-3-yl)isoquinolin-1-yl)amino)propenamide], the IC50 turned out to be 52 nM. On to `CCCCCc1cc(NC(=O)[C@@H](O)CNc2nccc3ccc(-c4noc(C)n4)cc23)nn1C` [Example 188, (S)-2-hydroxy-3-((7-(5-methyl-1,2,4-oxadiazol-3-yl)isoquinolin-1-yl)amino)-N-(1-methyl-5-pentyl-1 H-pyrazol-3-yl)propenamide], for which the half-maximal inhibitory concentration (IC50) came to 270 nM. For `CCCCCc1cc(NC(=O)[C@H](O)CNc2nccc3ccc(-c4noc(C)n4)cc23)nn1C` [Example 189, (R)-2-hydroxy-3-((7-(5-methyl-1,2,4-oxadiazol-3-yl)isoquinolin-1-yl)amino)-N-(1-methyl-5-pentyl-1 H-pyrazol-3-yl)propenamide], the IC50 came out at 616 nM.

For the molecule `Cc1nc(-c2ccc3ccnc(NC[C@@H](O)C(=O)Nc4nc(C)c(C(C)(C)C)s4)c3c2)no1` [Example 190, (R)-N-(5-(tert-butyl)-4-methylthiazol-2-yl)-2-hydroxy-3-((7-(5-methyl-1,2,4-oxadiazol-3-yl)isoquinolin-1-yl)amino)propanamide], the IC50 amounted to 726 nM. The figure for `Cc1nc(-c2ccc3ccnc(NC[C@@H](O)C(=O)Nc4nc(C)c(CC(C)C)s4)c3c2)no1` [Example 191, (R)-2-hydroxy-N-(5-isobutyl-4-methylthiazol-2-yl)-3-((7-(5-methyl-1,2,4-oxadiazol-3-yl)isoquinolin-1-yl)amino)propenamide] is 284 nM; for `Cc1nc(-c2ccc3ccnc(NC[C@@H](O)C(=O)Nc4nc(C)c(C5(C(F)(F)F)CC5)s4)c3c2)no1` [Example 192, (R)-2-hydroxy-3-((7-(5-methyl-1,2,4-oxadiazol-3-yl)isoquinolin-1-yl)amino)-N-(4-methyl-5-(1-(trifluoromethyl)cyclopropyl)thiazol-2-yl)propanamide] it is 461 nM. The figure for `Cc1nc(-c2cccc(C(=O)N[C@@H](CC#N)CC(=O)Nc3nc(C)c(C(=O)OC(C)(C)C)s3)c2)no1` [Example 193, tert-Butyl 2-[(3S)-4-cyano-3-{[3-(5-methyl-1,2,4-oxadiazol-3-yl)phenyl]form, amido}-butanamido]-4-methyl-1,3-thiazole-5-carboxylate] is 5 nM; for `Cc1nc(-c2cccc(C(=O)N[C@H](CC#N)CC(=O)Nc3nc(C)c(C(=O)OC(C)(C)C)s3)c2)no1` [Example 194, tert-Butyl 2-[(3R)-4-cyano-3-{[3-(5-methyl-1,2,4-oxadiazol-3-yl)phenyl]form-amido}butanamido]-4-methyl-1,3-thiazole-5-carboxylate] it is 96 nM; for `Cc1nc(-c2cccc(C(=O)N[C@@H](CC#N)CC(=O)Nc3nc(C)c(C(=O)OC(C)C)s3)c2)no1` [Example 195, Propan-2-yl 2-[(3S)-4-cyano-3-{[3-(5-methyl-1,2,4-oxadiazol-3-yl)phenyl]form-amido}butanamido]-4-methyl-1,3-thiazole-5-carboxylate] it is 12 nM.

As to `Cc1nc(-c2cccc(C(=O)N[C@H](CC#N)CC(=O)Nc3nc(C)c(C(=O)OC(C)C)s3)c2)no1` [Example 196, Propan-2-yl 2-[(3R)-4-cyano-3-{[3-(5-methyl-1,2,4-oxadiazol-3-yl)phenyl]form-amido}butanamido]-4-methyl-1,3-thiazole-5-carboxylate], the IC50 worked out at 167 nM.

In the case of `COC(=O)c1sc(NC(=O)C[C@H](CC#N)NC(=O)c2cccc(-c3noc(C)n3)c2)nc1C` [Example 197, Methyl 2-[(3S)-4-cyano-3-{[3-(5-methyl-1,2,4-oxadiazol-3-yl)phenyl]formamido}, butanamido]-4-methyl-1,3-thiazole-5-carboxylate], the IC50 was 135 nM.

Consider `COC(=O)c1sc(NC(=O)C[C@@H](CC#N)NC(=O)c2cccc(-c3noc(C)n3)c2)nc1C` [Example 198], for which the IC50 was found to be 181 nM. The figure for `Cc1nc(-c2cccc(C(=O)N[C@@H](CC#N)CC(=O)N(C)c3nc(C)c(C(=O)OC(C)C)s3)c2)no1` [Example 199, Propan-2-yl 2-[(3S)-4-cyano-N-methyl-3-{[3-(5-methyl-1,2,4-oxadiazol-3-yl)phenyl]-formamido}butanamido]-4-methyl-1,3-thiazole-5-carboxylate] is 10 nM; for `Cc1nc(-c2cccc(C(=O)N[C@H](CC#N)CC(=O)N(C)c3nc(C)c(C(=O)OC(C)C)s3)c2)no1` [Example 200, Propan-2-yl 2-[(3R)-4-cyano-N-methyl-3-{[3-(5-methyl-1,2,4-oxadiazol-3-yl)phenyl]-formamido}butanamido]-4-methyl-1,3-thiazole-5-carboxylate] it is 295 nM. The figure for `Cc1nc(NC(=O)C[C@H](CC#N)NC(=O)c2cccc(-c3cnn(C)c3)c2)sc1C(=O)OC(C)(C)C` [Example 201] is 410 nM.

For the molecule `Cc1nc(NC(=O)C[C@@H](CC#N)NC(=O)c2cccc(-c3cnn(C)c3)c2)sc1C(=O)OC(C)(C)C` [Example 202], the IC50 stood at 8850 nM. The figure for `Cc1nc(NC(=O)C[C@H](CC#N)NC(=O)c2cccc(-c3cnn(C)c3)c2)sc1C(=O)OC(C)C` [Example 203] is 1100 nM; for `Cc1nc(NC(=O)C[C@@H](CC#N)NC(=O)c2cccc(-c3cnn(C)c3)c2)sc1C(=O)OC(C)C` [Example 204] it is 5700 nM.

Consider `Cc1nc(N(C)C(=O)C[C@H](CC#N)NC(=O)c2cccc(-c3cnn(C)c3)c2)sc1C(=O)OC(C)C` [Example 205], for which the IC50 is 4400 nM.

For `Cc1nc(N(C)C(=O)C[C@@H](CC#N)NC(=O)c2cccc(-c3cnn(C)c3)c2)sc1C(=O)OC(C)C` [Example 206], the IC50 worked out at 9300 nM.

What is called IC50 is the concentration at which inhibition is half-maximal.

The values above are taken from US20250084074A1, “SUBSTITUTED HETEROCYCLES AS HSET INHIBITORS” (MERCK PATENT GMBH, priority 2022, published 2025).
